Data set [1] can be described thus: Refractive index measurement (Abbe's refractometer, acetone solutions, analytical curve extrapolated). The format is physicochemical. The note with it: light of 589 nm, 25±1° C., extrapolated to volume fraction 1. How it is done:
A refractive index measuring method will be described below.
Average refractive indices of the respective compounds to light of 589 nm at room temperature 25±1° C. were measured by an Abbe's refractometer (ER-1, produced by Erma, Inc.) and were plotted against volume fraction of each compound, to form analytical curves (the densities of the compounds were all 1.00 g/cm^3). The analytical curves were extrapolated, and the refractive index when the volume fraction of each compound is 1 was made to be a refractive index of each compound.

Data set [2] can be described thus: Transparency evaluation of resin compatible film with polyvinyl acetate (visual inspection). It is filed as physicochemical. Further details: key: Good: Transparency is good.; Poor: Coloration is present. The note with it: for Transparency: 3 μm film, 10 mg compound + 10 mg polyvinyl acetate, visual inspection; for evaluation of transparency: resin compatible film with PVAc. An excerpt:
Several drops of each of these resin compositions were dropped onto a 2 cm square glass substrate, a film was formed by a spin coater, and acetone as a solvent was evaporated off, to form a resin compatible film (3 μm thick) of each compound. These films were confirmed to be transparent by visual inspection and were subjected to evaluation of transparency.
The criterion of transparency evaluation is as follows.
Good . . . Transparency is good.
Poor . . . Coloration is present.

The nature of data set [3]: Limit value (saturation amount) of dissolution of monomer in solvent of hologram recording photosensitive composition. The format is physicochemical. As to conditions: hologram recording photosensitive composition with 8 g of acetone as solvent. As to the method:
In Comparative Example 5, Hologram Recording Photosensitive Composition 50 was prepared by the same method as in Example 7 by using the same materials in the same amounts as in Example 7, except that 0.88 g of Compound 40-1 (the compound of Comparative Example 1) was used as a monofunctional photopolymerizable monomer. […] Note that the amount (0.88 g) in which Compound 40-1 was used is a limit value (saturation amount) of dissolution of the compound in a solvent.
In Comparative Example 6, Hologram Recording Photosensitive Composition 60 was prepared by the same method as in Example 7 by using the same materials in the same amounts as in Example 7, except that 1 g of Compound 40-2 (the compound of Comparative Example 2) was used as a monofunctional photopolymerizable monomer. […] Note that the amount (1 g) in which Compound 40-2 was used is a limit value (saturation amount) of dissolution of the compound in a solvent.
In Comparative Example 7, Hologram Recording Photosensitive Composition 70 was prepared by the same method as in Example 7 by using the same materials in the same amounts as in Example 7, except that 0.1 g of Compound 40-3 (the compound of Comparative Example 3) was used as a monofunctional photopolymerizable monomer. […] Note that the amount (0.1 g) in which Compound 40-3 was used is a limit value (saturation amount) of dissolution of the compound in a solvent.

The nature of data set [4]: Solubility measurement in acetone. The note with it: ultrasonic stirring, visual.
Description: When there was an undissolved portion of the compound, a small amount of acetone was added thereto, and then stirring was further conducted for 30 seconds. The above-mentioned work was repeated, and upon dissolution of the whole of the compound, the solubility was calculated from the total amount of the solvent used.
For data set [5] the following is noted: background statement; cited from earlier work.

In general, refractive index refers to the speed of light in vacuum divided by its phase velocity in the sample.

Molecules are shown by their SMILES.

On to `C=C(C)C(=O)OCc1cc2ccccc2c2c1sc1ccc3ccccc3c12` [Comparative Example 1, reference compound], for which, in data set [1], the “Refractive index (589 nm)” value was 1.73. In data set [2], the Transparency entry is recorded as “Good”. The “limit value (saturation amount) of dissolution of the compound in a solvent” value (from here on “limit value (saturation amount)”) in data set [3] stood at 0.88 g. The same compound came in with a Solubility/wt % in data set [4] of less than 10 wt %.

For `C=C(C)C(=O)OC(C)c1cc2ccccc2c2c1sc1ccc3ccccc3c12` (centres unmarked) [Comparative Example 2, reference compound], the “Refractive index (589 nm)” value in data set [1] was 1.71. For the same compound, in data set [2], the Transparency entry is given as “Poor” and the evaluation of transparency result is on record as “Poor”. Moreover, the “limit value (saturation amount)” value in data set [3] was 1 g. In data set [4], this compound had a Solubility/wt % of less than 11 wt %.

As for `C=Cc1cc2ccccc2c2c1sc1ccc3ccccc3c12` [Comparative Example 3, reference compound], in data set [1], the “Refractive index (589 nm)” value is listed as 1.8. Further, in data set [2], the Transparency result was “Poor” and the evaluation of transparency entry was “Poor”. Besides, in data set [3], the “limit value (saturation amount)” value is given as 0.1 g. This compound also displayed a Solubility/wt % in data set [4] of less than 1.5 wt %.

Consider `c1ccc2c(c1)ccc1sc3ccc4ccccc4c3c12` [Comparative Example 4, reference compound], for which the “Refractive index (589 nm)” value in data set [1] is listed as 1.81. Also, the Transparency entry in data set [2] is recorded as “Good”.

Turning to `C=C(C)C(=O)Oc1ccccc1CCc1cc2ccccc2c2c1sc1ccc3ccccc3c12` [Example 1], the “Refractive index (589 nm)” value in data set [1] was 1.8. In data set [2], the Transparency result is recorded as “Good”. Moreover, in data set [4], the Solubility/wt % is more than 20 wt %.

Consider `C=C(C)C(=O)Oc1cccc(CCc2cc3ccccc3c3c2sc2ccc4ccccc4c23)c1` [Example 2], for which the “Refractive index (589 nm)” value in data set [1] was 1.8. The Transparency result in data set [2] is reported as “Good”. The Solubility/wt % in data set [4] was more than 20 wt %.

As for `C=C(C)C(=O)Oc1ccc(CCc2cc3ccccc3c3c2sc2ccc4ccccc4c23)cc1` [Example 3], the “Refractive index (589 nm)” value in data set [1] is 1.8. For the same compound, the Transparency result in data set [2] is given as “Good”. The Solubility/wt % in data set [4] is on record as more than 20 wt %.

As for `C=C(CCCCCCCCCC)C(=O)Oc1ccccc1CCc1cc2ccccc2c2c1sc1ccc3ccccc3c12` [Example 4], the “Refractive index (589 nm)” value in data set [1] is reported as 1.7. For the same compound, in data set [2], the Transparency result is recorded as “Good”. In data set [4], this compound gave a Solubility/wt % of more than 20 wt %.

In the case of `C=C(C)C(=O)Oc1ccccc1CCc1cc2ccccc2c2c1sc1ccc3ccccc3c12` [Example 5], in data set [1], the “Refractive index (589 nm)” value is reported as 1.7. For the same compound, in data set [2], the Transparency entry is “Good”. In data set [4], this compound had a Solubility/wt % of more than 20 wt %.

As to `C=C(C)C(=O)Oc1ccc2ccccc2c1CCc1cc2ccccc2c2c1sc1ccc3ccccc3c12` [Example 6], in data set [1], the “Refractive index (589 nm)” value is listed as 1.81. For the same compound, the Transparency entry in data set [2] is listed as “Good”. Besides, in data set [4], the Solubility/wt % is more than 20 wt %.

For the compound `C=C(C)C(=O)Oc1cccc(OC(=O)C(=C)C)c1CCc1cc2ccccc2c2c1sc1ccc3ccccc3c12` [Example 13], in data set [1], the “Refractive index (589 nm)” value was 1.73. The Transparency entry in data set [2] is on record as “Good”. The Solubility/wt % in data set [4] was more than 20 wt %.

For the compound `C=CC(=O)Oc1cccc(OC(=O)C=C)c1CCc1cc2ccccc2c2c1sc1ccc3ccccc3c12` [Example 14], in data set [1], the “Refractive index (589 nm)” value is reported as 1.72. Also, in data set [2], the Transparency entry is reported as “Good”. Moreover, the Solubility/wt % in data set [4] is given as more than 20 wt %.

As for `C=C(C)C(=O)Oc1cc2ccccc2cc1CCc1cc2ccccc2c2c1sc1ccc3ccccc3c12` [Example 15], the “Refractive index (589 nm)” value in data set [1] is 1.81. Besides, the Transparency entry in data set [2] was “Good”. Moreover, the Solubility/wt % in data set [4] is given as more than 20 wt %.

In the case of `c1ccc2c(c1)ccc1c2sc2ccc3ccccc3c21` [dinaphthothiophene], the refractive index in data set [5] is on record as 1.8.
